Assay results: patent publication US8183252B2, “Heterocyclic aspartyl protease inhibitors” (Schering Corporation, priority 2007, dated 2012)

Each molecule was assayed against T1, human BACE1 (sproBACE1) (Homo sapiens, UniProt P56817) (assay: BACE-1 Peptide Hydrolysis Assay (HTRF)). Conditions: not given.
T1 construct: sBACE1, corresponding to amino acids 1-454; made in house; host or cells: Sf9 insect cells (baculovirus), secreted into the medium
Type: biochemical
Outline: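 Secreted sBACE1-myc/His from baculovirus-infected sf9 cells, purified on Q-sepharose then Ni-NTA. Substrate-initiated reactions ran 3 hr at 30° C., then were stopped with KF buffer (pH 8.0) containing SA-XL665 for HTRF read-out. EC50 was fitted by sigmoidal dose-response to percent change in ratio.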

T1 sequence (P56817 22-454): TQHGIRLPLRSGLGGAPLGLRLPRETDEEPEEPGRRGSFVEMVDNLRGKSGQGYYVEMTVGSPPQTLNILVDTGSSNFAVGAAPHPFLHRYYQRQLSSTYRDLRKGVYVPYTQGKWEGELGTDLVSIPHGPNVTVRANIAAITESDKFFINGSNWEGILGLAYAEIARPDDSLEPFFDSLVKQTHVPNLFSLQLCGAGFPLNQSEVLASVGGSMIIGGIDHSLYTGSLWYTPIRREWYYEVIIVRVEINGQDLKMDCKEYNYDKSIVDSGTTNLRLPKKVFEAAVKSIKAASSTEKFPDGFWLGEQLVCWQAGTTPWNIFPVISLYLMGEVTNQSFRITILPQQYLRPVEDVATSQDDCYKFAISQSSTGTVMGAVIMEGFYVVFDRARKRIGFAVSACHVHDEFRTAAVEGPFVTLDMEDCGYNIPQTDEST

Row | Compound | Ki [µM]
1 | COc1ccc(CNc2ccccc2)c(-c2cccc(C3(C)NC(=N)N(CC4CCN(C(C)=O)CC4)C3=O)c2)c1 (stereo not shown) | < 5

Same assay, conditions: read-out: BACE-1 Ki

Row | Compound | Ki [µM]
2 | CN1C(=N)N[C@](C)(c2cc(-c3cc(Br)cc(C#N)c3)cs2)CC1=O | < 5
3 | CN1C(=N)N[C@](C)(c2cc(Br)co2)CC1=O | < 5
4 | CN1C(=N)NC(c2cc(-c3cncc(Cl)c3)cs2)(C2CC2)C1=O (stereo not shown) | < 5
5 | CN1C(=N)N[C@](C)(c2ccc(C#N)s2)[C@@H](c2ccc(C(C)(F)F)cc2)C1=O | < 5
6 | CC(C)Oc1cccc(-c2csc([C@]3(C)CC(=O)N(C)C(=N)N3)c2)c1 | < 5
7 | CN1C(=N)NC(C)(c2cccc(-c3cc(Cl)ccc3CCOC=O)c2)C1=O (stereo not shown) | < 5
8 | CC(=O)N[C@@H]1CCC[C@H](C[C@@]2(CCc3ccccc3)NC(=N)N(C)C2=O)C1 | < 5
9 | COCC1CCCN1C(=O)c1cccc(CN2C(=N)NC(C)(c3ccccc3)C2=O)c1 (stereo not shown) | < 5
10 | CC1(c2cccc(-c3cccc(Cl)c3)c2)NC(=N)N(CC2CCN(S(C)(=O)=O)C2)C1=O (stereo not shown) | < 5
11 | CCN(CCc1cccc(C2(c3ccccc3)NC(=N)N(C)C2=O)c1)C(C)=O (racemic) | < 5
12 | N=C1NC(c2ccccc2)(c2ccccc2)C(=O)N1CC1CCN(C(=O)Nc2cccc(Cl)c2)CC1 | < 5
13 | CCCS(=O)(=O)N1CCC(CN2C(=N)NC(c3ccccc3)(c3ccccc3)C2=O)CC1 [piperidine, 4-[(2-imino-5-oxo-4,4-diphenyl-1-imidazolidinyl)methyl]-1-(propylsulfonyl)-] | < 5
14 | C[C@H]1C(=O)N(C)C(=N)N[C@]1(C)c1cc2ccccc2s1 | < 5
15 | CC(C)N1C(=N)NC(c2cccc(-c3cccc(Cl)c3)c2)(C2CC2)C1=O (stereo not shown) [4-imidazolidinone, 5-(3′-chloro[1,1′-biphenyl]-3-yl)-5-cyclopropyl-2-imino-3-(1-methylethyl)-] | < 5
16 | N=C1NC(c2ccccc2)(c2cccc(-c3cccnc3)c2)C(=O)N1CC1CCNCC1 (stereo not shown) | < 5
17 | COc1cc(C#N)cc(-c2csc([C@]3(C)CC(=O)N(C)C(=N)N3)c2)c1 | < 5
18 | CN1C(=N)NC(C)(c2cc(-c3cccc(C#N)c3)cs2)C(CCCc2ccccc2)C1=O (stereo not shown) | < 5
19 | N=C1NC(c2ccccc2)(c2ccccc2)C(=O)N1C[C@H]1CCCN(S(=O)(=O)C2CC2)C1 | < 5
20 | COCCN1C(=N)N[C@](C)(c2ccc3sccc3c2)CC1=O | < 5
21 | COc1cccc(-c2sc([C@]3(C)CC(=O)N(C)C(=N)N3)cc2C)c1 | < 5
22 | CN1C(=N)N[C@](C)(c2cc(-c3ccc(F)nc3)c3sccc3c2)CC1=O | < 5
23 | CCc1cccc(-c2cc([C@]3(C)CC(=O)N(C)C(=N)N3)nn2C)c1 | < 5
24 | CN1C(=N)NC(C)(c2cccc(-c3cncc(C#N)c3)c2)C1=O (racemic) | < 5
25 | CN1C(=N)NC(C)(c2cc(-c3cccc(C#N)c3)cs2)C(CC#N)C1=O (mixture of isomers) | < 5

Row | Compound | Ki [µM]
26 | CN1C(=N)N[C@](C)(c2ccc3scc(-c4ccc(C#N)s4)c3c2)CC1=O | < 5
27 | CN1C(=N)NC(c2ccccc2)(c2cccc(NC(=O)CC3CC3)c2)C1=O (racemic) | < 5
28 | N=C1NC(c2ccccc2)(c2ccccc2)C(=O)N1Cc1cccc(NC(=O)Cc2cccs2)c1 | < 5
29 | CC(C)[C@H](CO)N1C(=N)NC(c2cccc(-c3cccc(Cl)c3)c2)(C2CC2)C1=O (stereo partly drawn) [4-imidazolidinone, 5-(3′-chloro[1,1′-biphenyl]-3-yl)-5-cyclopropyl-3-[(1R)-1-(hydroxymethyl)-2-methylpropyl]-2-imino-] | < 5
30 | CN1C(=N)N[C@](CCc2ccccc2)(C[C@H]2CCC[C@@H](NC3CCCC3)C2)C1=O | < 5
31 | CN1C(=N)N[C@](CCc2ccccc2)(C[C@H]2CCC[C@@H](Nc3ccccc3)C2)C1=O | < 5
32 | CC1(c2cccc(-c3cccc(Cl)c3)c2)NC(=N)N(CC2CCN(C(=O)c3ccccc3)C2)C1=O (stereo not shown) | < 5
33 | C[C@@]1(c2cc(-c3cccc(C#N)c3)cs2)CC(=O)N(Cc2ccncc2)C(=N)N1 | < 5
34 | CCC(CO)N1C(=N)NC(c2cccc(-c3cccc(Cl)c3)c2)(C2CC2)C1=O (stereo not shown) [4-imidazolidinone, 5-(3′-chloro[1,1′-biphenyl]-3-yl)-5-cyclopropyl-3-[1-(hydroxymethyl)propyl]-2-imino-] | < 5
35 | CN1C(=N)NC(C)(c2cc(-c3cccc(C#N)c3)cs2)C(CC=Cc2ccccc2)C1=O (stereo not shown) | < 5
36 | N=C1NC(c2ccccc2)(c2ccccc2)C(=O)N1CC1CCN(C(=O)CCN)CC1 | < 5
37 | CN1C(=N)NC(C)(c2cccc(-c3cc(Cl)ccc3CNC(=O)c3cccnc3)c2)C1=O (stereo not shown) | < 5
38 | CC1(c2cccc(-c3cccc(Cl)c3)c2)NC(=N)N(CC2CCN(S(=O)(=O)c3ccccc3)C2)C1=O (stereo not shown) | < 5
39 | CN1C(=N)NC(c2cccc(Br)c2)(C2(C)CC2)C1=O (stereo not shown) [5-(3-BROMOPHENYL)-2-IMINO-3-METHYL-5-(1-METHYLCYCLOPROPYL)-4-IMIDAZOLIDINONE] | < 5
40 | CN1C(=N)N[C@](C)(c2cnc(-c3cccc(C#N)c3)s2)CC1=O | < 5
41 | CN1C(=N)NC(c2cc(-c3cccc(CO)c3)cs2)(C2CC2)C1=O (stereo not shown) | < 5
42 | CN1C(=N)NC(c2ccccc2)(c2cccc(-c3ccoc3)c2)C1=O (racemic) [5-[3-(3-FURANYL)PHENYL]-2-IMINO-3-METHYL-5-PHENYL-4-IMIDAZOLIDINONE (RACEMIC), 5-[3-(3-FURANYL)PHENYL]-2-IMINO-3-METHYL-5-PHENYL-4-IMIDAZOLIDINONE] | < 5
43 | C[C@H]1C(=O)N(C)C(=N)N[C@]1(C)c1cc(-c2cc(C#N)cc(C#N)c2)cs1 | < 5
44 | CN1C(=N)N[C@](C)(C[C@H]2CCC[C@@H](Nc3cnc4ccccc4n3)C2)C1=O | < 5
45 | N=C1NC(c2ccccc2)(c2ccccc2)C(=O)N1CC1CCN(S(=O)(=O)c2ccccc2)CC1 [piperidine, 4-[(2-imino-5-oxo-4,4-diphenyl-1-imidazolidinyl)methyl]-1-(phenylsulfonyl)-] | < 5
46 | CN1C(=N)N[C@](C)(c2sccc2Cl)CC1=O | < 5
47 | CN1C(=N)N[C@](C)(c2csc3c(-c4ccccc4)cccc23)CC1=O | < 5
48 | N=C1NC(c2ccccc2)(c2ccccc2)C(=O)N1Cc1cccc(NC(=O)c2ccccc2)c1 [BENZAMIDE, N-[3-[(2-IMINO-5-OXO-4,4-DIPHENYL-1-IMIDAZOLIDINYL)METHYL]PHENYL]-] | < 5
49 | CC1(c2cccc(-c3cccc(Cl)c3)c2)NC(=N)N(CC2CCN(C(=O)Cc3ccccc3)C2)C1=O (stereo not shown) | < 5

Row | Compound | Ki [µM]
50 | CN1C(=N)NC(C)(c2cc(-c3ccc(F)c(C#N)c3)cs2)C(Br)C1=O (stereo not shown) | < 5
51 | CN1C(=N)N[C@@](C[C@H]2CCC[C@@H](Nc3ccc4ccccc4n3)C2)(C2CC2)C1=O | < 5
52 | CN1C(=N)NC(c2ccccc2)(c2cccc(NS(=O)(=O)c3cccc(C#N)c3)c2)C1=O (racemic) | < 5
53 | CN1C(=N)N[C@](C)(c2cc(-c3cccc(Br)c3)nn2C)C(C)(C)C1=O | < 5
54 | COc1ccccc1C(=O)NCc1ccc(Cl)cc1-c1cccc(C2(C)NC(=N)N(C)C2=O)c1 (stereo not shown) [benzamide, N-[[5-chloro-3′-(2-imino-1,4-dimethyl-5-oxo-4-imidazolidinyl)[1,1′-biphenyl]-2-yl]methyl]-2-methoxy-] | < 5
55 | Cc1ccc(N2CCC([C@H]3C(=O)N(C)C(=N)N[C@]3(C)c3cc(-c4cccc(C#N)c4)cs3)CC2)cc1 | < 5
56 | CN1C(=N)N[C@](C)(c2cc(-c3cccc(C#N)c3)c(C3=CCN(c4ccccc4)CC3)s2)CC1=O | < 5
57 | CN1C(=N)NC(c2ccccc2)(c2cccc(NS(=O)(=O)c3cccs3)c2)C1=O (racemic) | < 5
58 | CN1C(=N)N[C@](C)(c2cc(-c3ccc(F)c(C#N)c3)nn2C)CC1=O | < 5
59 | CC1(c2cccc(-c3cccc(Cl)c3)c2)NC(=N)N(CC2CCN(C(=O)CC3CCCCC3)C2)C1=O (stereo not shown) | < 5
60 | CN1C(=N)N[C@](C)(c2cc(-c3cc(C#N)ccc3Cl)c3sccc3c2)CC1=O | < 5
61 | CN1OCC(C)(c2cc(-c3cccc(C#N)c3)cs2)NC1=N (stereo not shown) | < 5
62 | CN1C(=N)NC(c2cccc(-c3cncc(Br)c3)c2)(C2(C)CC2)C1=O (stereo not shown) | < 5
63 | COc1cccc(-c2cccc(C3(C)NC(=N)N(Cc4cccc(N5CCCCS5(=O)=O)c4)C3=O)c2)c1 (racemic) | < 5
64 | CN1C(=N)N[C@](C)(c2ccnc(-c3cccnc3F)c2)[C@@H](c2ccc(C3CC3)cc2)C1=O | < 5
65 | CN1C(=N)NC(C)(c2cccc(-c3cc(Cl)ccc3CNS(=O)(=O)c3ccccc3)c2)C1=O (stereo not shown) [benzenesulfonamide, N-[[5-chloro-3′-(2-imino-1,4-dimethyl-5-oxo-4-imidazolidinyl)[1,1′-biphenyl]-2-yl]methyl]-] | < 5
66 | CN1C(=N)N[C@](C)(c2cc(-c3cncc(C#N)c3)cs2)[C@H](C2CCC2)C1=O | < 5
67 | CN1C(=N)N[C@](C)(c2ccc3c(ccn3C)c2)CC1=O | < 5
68 | CN1C(=N)N[C@](C)(c2cc(-c3cccc(C#N)c3)nn2C)CC1=O | < 5
69 | CN1C(=N)N[C@](C)(c2cc(-c3cccc(Br)c3)ns2)CC1=O | < 5
70 | CN1C(=N)N[C@](CCC2CCCCC2)(C[C@H]2CCC[C@H](N[C@H]3CCNC3=O)C2)C1=O | < 5
71 | CN1C(=N)N[C@](C)(c2cc(-c3cccnc3)c3sccc3c2)CC1=O | < 5
72 | CCCn1ncc2ccc([C@]3(C)CC(=O)N(C)C(=N)N3)cc21 | < 5
73 | CN1C(=N)N[C@](CCc2ccccc2)(C[C@H]2CCC[C@@H](Nc3cccnc3)C2)C1=O | < 5
